Each structure is given as a SMILES string. Where a chain is given by its changes, count along the chain named. Where two headings read alike, the source gives them in different places.

The subject of one assay is ER alpha glucosidase. In words: Free oligosaccharide analysis (measure of ER alpha glucosidase inhibition). In kind it is cell-based. The note with it: FIG. 13, compared with UV-4. How it is done:
Free glucosyl oligosaccharides were measured according to Alonzi et al. Biochem. J. (2008) 409, 571-580.

Assay [1] relates to glucosylceramide and lactosylceramide in Huh7.5 cells. In words: Cellular glucosylceramide and lactosylceramide measurement in Huh7.5 hepatoma cells (lipidomics). The class given is cell-based. The following applies: human hepatoma cells (Huh7.5), 10 μM, 4 days. How it is done:
Glycosphingolipids (including GlcCer and LacCer) were measured according to Wolf, C. and Quinn, P. J. Progress in lipid research (2008) 47, 15-36. Briefly, chloroform-methanol extracts of cellular lipids were subjected to HPLC to isolate the glycosphingolipid species from other cellular lipids, then subjected to two-dimentional mass-spectromertry with internal standards in order to quantify particular glycosphingolipid species.
Huh7.5 cells were grown in DMEM supplemented with 100 U/ml penicillin, […] streptomycin, 2 mM L-glutamine, 1×MEM, and 10% FBS. All incubations were at 37° C./5% CO2. The effect of iminosugar treatment on cellular lipid profiles was determined in cells after incubation for 4 days in the presence or absence of iminosugars, at which point they were harvested using trypsin/EDTA, washed 3 times in cold PBS, counted using trypan blue staining, and final cell pellets were resuspended in methanol:acetone (vol 1:1) prior to lipid profiling, A small volume of each sample was used for total protein estimation using the Bradford protein assay (Bio-Rad).
The methodology has been described in detail previously (Wolf, C., Quinn, P. J., Lipidomics: Practical aspects and applications. Progress in Lipid Research 2008, 47, 15-36: Quinn, P. J., Rainteau, D., Wolf, C., Lipidomics of the red cell in diagnosis of human disorders. Methods Mol Biol 2009, 579, 127-159). […]

Assay [2] has as its target T1, ceramide glucosyltransferase (Homo sapiens, UniProt Q16739).
T1 construct: endogenous in cells; host or cells: HL60 cells
T1 sequence (Q16739 1-394): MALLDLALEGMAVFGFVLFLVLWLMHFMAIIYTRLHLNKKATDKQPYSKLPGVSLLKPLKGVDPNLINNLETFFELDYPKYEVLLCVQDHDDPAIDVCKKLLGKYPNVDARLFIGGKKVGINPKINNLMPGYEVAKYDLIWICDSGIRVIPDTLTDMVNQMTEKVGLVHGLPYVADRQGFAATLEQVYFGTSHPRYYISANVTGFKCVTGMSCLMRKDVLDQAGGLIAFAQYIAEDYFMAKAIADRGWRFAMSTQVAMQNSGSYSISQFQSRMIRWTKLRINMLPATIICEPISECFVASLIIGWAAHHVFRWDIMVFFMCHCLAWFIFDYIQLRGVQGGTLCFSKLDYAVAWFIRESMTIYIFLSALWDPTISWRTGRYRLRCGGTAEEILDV
Nature of the assay: Ceramide glucosyltransferase cellular assay (GM3 reduction in HL60 cells, NP-HPLC). In kind it is cell-based. The note with it: for IC50: 3 days, GM3 peak area.

Assay [3] concerns the target T2, human placental β-glucocerebrosidase (Homo sapiens, UniProt P04062).
T2 construct: Human placental β-glucocerebrosidase was isolated and purified; from tissue; host or cells: human placenta
T2 sequence (P04062 40-536): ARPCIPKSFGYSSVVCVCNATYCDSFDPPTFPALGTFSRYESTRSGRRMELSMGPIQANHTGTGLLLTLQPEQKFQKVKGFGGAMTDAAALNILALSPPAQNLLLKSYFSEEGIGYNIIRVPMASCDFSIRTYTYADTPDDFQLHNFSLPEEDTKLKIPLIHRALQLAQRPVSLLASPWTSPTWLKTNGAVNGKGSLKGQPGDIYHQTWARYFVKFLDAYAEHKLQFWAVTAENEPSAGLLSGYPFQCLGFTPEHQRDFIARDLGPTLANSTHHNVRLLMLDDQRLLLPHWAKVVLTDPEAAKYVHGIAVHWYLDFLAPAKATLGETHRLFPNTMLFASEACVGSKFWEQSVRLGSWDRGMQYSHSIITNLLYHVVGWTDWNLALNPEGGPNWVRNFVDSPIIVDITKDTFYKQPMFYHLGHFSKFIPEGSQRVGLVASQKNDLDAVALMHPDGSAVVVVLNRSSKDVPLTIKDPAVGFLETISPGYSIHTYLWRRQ
In words: β-Glucocerebrosidase inhibition assay (4-methylumbelliferyl-β-glucoside, fluorogenic). The class given is biochemical.

In assay [4] the target is T3, β-glucocerebrosidase (N370S mutant) (Homo sapiens, UniProt P04062, N409S).
T3 construct: mutant Gaucher lymphoblasts with the most common N370S mutation; endogenous in cells; host or cells: Gaucher (N370S) lymphoblasts
T3 sequence (P04062 40-536 N409S): T2 sequence (P04062 40-536) with N370S
In words: β-Glucocerebrosidase activation (chaperone) assay in Gaucher N370S cells. The following applies: 3 days, versus untreated cells. The class given is cell-based.

Regarding `Cc1c(C)c2c(c(C)c1OCCCCCN1C[C@H](O)[C@@H](O)[C@H](O)[C@H]1CO)CC[C@@](C)(CCC[C@H](C)CCC[C@H](C)CCCC(C)C)O2` [Top-DNJ, tocopheryl-pentyl deoxynojirimycin], the “ER glucosidase inhibitory activity (free oligosaccharide analysis)” value in the assay on ER alpha glucosidase is given as “virtually devoid of ER glucosidase inhibitory activity”. Further, the “inhibition of the cellular glucosylceramide / lactosylceramide pathway” value in assay [1] is “near-complete inhibition”.
What is called IC50 is the midpoint of a concentration-inhibition curve. As to `COCCCCCCCCCN1C[C@H](O)[C@@H](O)[C@H](O)[C@H]1CO` [UV4, N-(9-methoxynonyl)deoxynojirimycin], the half-inhibitory concentration (IC50) in assay [2] was 190 ± 21 nM; in assay [3] (human placental enzyme, 0.5 mM 4-MU-β-glucoside, pH 5.2) it was 1850 ± 40 nM. For the same compound, the “potency in cells relative to NB-DNJ” value in assay [2] (GM3 reduction, versus NB-DNJ (Zavesca)) is given as “approximately 100 times”. Further, the “Activation fold at 10 μM” value in assay [4] (10 μM) is given as 2.1 fold.
For the compound `[N-]=[N+]=Nc1ccc(NCCCCCCN2C[C@H](O)[C@@H](O)[C@H](O)[C@H]2CO)c([N+](=O)[O-])c1` [UV5, N—(N′-{4′-azido-2′-nitrophenyl)-6-aminohexyl)-deoxynojirimycin], the IC50 is 49 ± 5 nM in assay [2] and 150 ± 30 nM in assay [3]. Besides, in assay [4] (1 μM), the “Activation fold (@ 1 μM)” value is given as 1.7 (@ 1 μM) fold.

For the origin of these results see patent US20160075651A1, “GLYCOLIPID INHIBITION USING IMINOSUGARS” (UNITHER VIROLOGY, LLC, priority 2013, published 2016).
